Reference: US6664213B1, “Liquid pesticide composition” (Nissan Chemical Industries, Ltd., priority 1999, dated 2003)

Tests used:
[1] = tested on: velvetleaf (Abutilon theophrasti); experiment: Test Example 5: herbicidal effect of Halosulfuron-methyl spray solution with added polyoxyethylene alkyl ethers on velvetleaf; format: in vivo; settings: scale 0 to 100; spray solution of 75% water dispersible granules of Halosulfuron-methyl alone, 0.1 g/a., five-leaf stage, 2 l/a., 27 days after spraying
Method: (§1) A biological test was conducted using spray solutions prepared by adding polyoxyethylene alkyl ethers having different HLB values to a herbicide spray solution.
Biological tests were conducted on velvetleaf (Abutilon theophrasti) using spray solutions prepared by adding polyoxyethylene alkyl ethers having different HLB values to a spray solution of 75% water dispersible granules of Halosulfuron-methyl. To confirm a difference in effect between the polyoxyethylene alkyl ethers, the tests were carried out using a lower concentration of Halosulfuron-methyl than usual. A plastic pot having a diameter of 12 cm was filled with soil, and velvetleaf seeds were sowed in the soil. The solutions were sprayed on velvetleaf of five-leaf stage in an amount of 0.1 g per are (g/a.), calculated as pesticidally active ingredient Halosulfuron-methyl. The amount of the solution sprayed was 2 liters per are (l/a.)and 1,000 ppm of a the polyethylene alkyl ethers were added to the solution. Herbicidal effects were observed and evaluated 27 days after spraying.

[2] = tested on: crabgrass(Digitaria ciliaris); experiment: Test Example 6: herbicidal effect of Quizalofop-p-ethyl spray solution with added polyoxyethylene alkyl ethers on crabgrass; format: in vivo; settings: scale 0 to 100; spray solution of 40% suspension concentrates of Quizalofop-p-ethyl alone, 125 mg/a., 3 weeks after sowing, 2.5 l/a., 21 days after spraying
Method: as §1
Biological tests were conducted on crabgrass(Digitaria ciliaris) using spray solutions prepared by adding polyoxyethylene alkyl ethers having different HLB values to a spray solution of 40% suspension concentrates of Quizalofop-p-ethyl. A plastic pot having a diameter of 12 cm was filled with soil, and crabgrass seeds were sowed in the soil. The solutions were sprayed on in an amount of 125 mg per are (mg/a.), calculated as pesticidally active ingredient Quizalofop-p-ethyl, 3 weeks after the seeds were sowed. The amount of the solution sprayed was 2.5 liters per are (1/a.) and 125 ppm of the polyoxyethylene alkyl ethers were added to the solution. Herbicidal effects on crabgrass were observed and evaluated 21 days after spraying.

Structure (SMILES): COC(=O)c1c(Cl)nn(C)c1S(=O)(=O)NC(=O)Nc1nc(OC)cc(OC)n1 [Halosulfuron-methyl]
- Observation evaluation, herbicidal effect of Halosulfuron-methyl on velvetleaf, polyoxyethylene alkyl ether not added [1]: 40

Structure (SMILES): CCOC(=O)[C@@H](C)Oc1ccc(Oc2cnc3cc(Cl)ccc3n2)cc1 [Quizalofop-p-ethyl, ethyl=(R)-2-[4-(6-chloroquinoxalin-2-yloxy)phenoxy]propionate]
- Observation evaluation, herbicidal effect of Quizalofop-p-ethyl on crabgrass, polyoxyethylene alkyl ether not added [2]: 25
